What all share (assay): NCI tumour cell line growth inhibition, 48 h
In experiment [1] the test system is A498 renal.
Experiment [2] relates to NCI-H226 lung.
Experiment [3] deals with SF-295 CNS.
The test system of experiment [4] is NCI-H23 lung.
Experiment [5] relates to LOX IMVI melanoma.
In experiment [6] the test system is MDA-MB-231 breast.
The test system of experiment [7] is IGROV1 ovarian.
The test system of experiment [8] is EKVX NSCLC.
The subject of experiment [9] is HCT-15 colon.
Experiment [10] deals with 786-0 renal.

Several values for one entry are separate records, joined by “and”; a condition that tells them apart may be missing. Equal values may be shown once.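 Each compound was tested at five concentrations against cells in 96-well plates for 48 hours. Abbreviation: GI50, concentration required for 50% inhibition of growth. The concentration for full growth arrest is given as TGI.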

For `Cc1cc(=O)oc2ccc(OC/C=C3\CCC(=O)O3)cc12`, the GI50 is 12.3 µM in experiment [1]; 17.2 µM in experiment [2]; 15.3 µM in experiment [3]; 10.4 µM in experiment [4]; 4.94 µM in experiment [5]; 13.2 µM in [6]. Moreover, the GI50 was 3.3 µM in [7], 18.7 µM in [8], 3.5 µM in experiment [9] and 2.7 µM in experiment [10]. Moreover, the TGI in experiment [1] amounted to 50.6 µM; in experiment [2] it was 57.2 µM; in [3] it was 41.9 µM; in experiment [4], 25.2 µM; in experiment [5], 17.2 µM; in [6], 27 µM. Also, the TGI in experiment [7] came out at 16.4 µM; in experiment [8], 45.6 µM; in [9], 11.5 µM; in experiment [10] it was 14.2 µM.

As to `CC1CC2C3CCC4=CC(=O)C=CC4(C)C3(F)C(O)CC2(C)C1(O)C(=O)COP(=O)(O)O` (centres undefined), the GI50 in experiment [1], in [2], in experiment [3], in experiment [4], in experiment [5] and in experiment [6] was over 500 µM each time. In addition, the GI50 in experiment [7], in experiment [8], in experiment [9] and in experiment [10] was over 500 µM throughout. The TGI in experiment [1], in [2], in experiment [3], in experiment [4], in experiment [5] and in experiment [6] was over 500 µM in each case. In addition, the TGI in experiment [7], in experiment [8], in experiment [9] and in experiment [10] was over 500 µM each time.

With `CCN1CCN(c2nc(C)cc(N(CCCNc3ccnc4cc(Cl)ccc34)Cc3ccc4c(c3)OCO4)n2)CC1`, the GI50 in [1] is 1.38 µM; in experiment [2], 5.36 µM; in experiment [3], 1.81 µM; in experiment [4], 2.61 µM; in experiment [5], 1.62 µM; in experiment [6], 1.2 µM. Also, the GI50 was 1.61 µM in [7], 2.6 µM in experiment [8], 1.07 µM in [9] and 1.46 µM in [10]. The TGI in experiment [1] worked out at 4.23 µM; in experiment [2] it was 24.4 µM; in experiment [3] it was 3.39 µM; in [4], 10.1 µM; in [5] it was 3.18 µM; in experiment [6], 2.9 µM. Further, the TGI amounted to 5.06 µM in experiment [7], 10.9 µM in experiment [8], 3.16 µM in [9] and 2.95 µM in experiment [10].

Turning to `O=C(O)C1=C/C(=C(/c2ccccc2)c2cc(C(=O)O)c(O)c3ccccc23)c2ccccc2C1=O`, the TGI in experiment [1], in experiment [2], in experiment [3], in [4], in experiment [6] and in experiment [7] was over 100 µM throughout. Moreover, the TGI in [8], in experiment [9] and in experiment [10] was over 100 µM throughout.

As for `c1cc(N[C@@H]2CCNC2)nc(-c2cnc3ccc(-c4cn[nH]c4)cn23)c1`, the GI50 in experiment [1] is 7.01 µM; in [2], 4.13 µM; in experiment [3], 12 µM; in experiment [4], 5.07 µM; in [5], 3.24 µM; in [6], 3.56 µM. Also, the results for the GI50 in [7], in experiment [9] and in [10] were 5.46 µM, over 100 µM and 10.6 µM, respectively. For the same molecule, the TGI is 29 µM in experiment [1]; over 100 µM in experiment [2]; over 55 µM in [3]; 35.9 µM in experiment [4]; 15.1 µM in experiment [5]; 36.1 µM in [6]. Moreover, the TGI was 17.6 µM in experiment [7], over 100 µM in experiment [9] and over 83.1 µM in [10].

Consider `COc1cc(/C=C2\C(=O)N(Cc3ccc(Cl)cc3)c3ccccc32)cc(OC)c1OC`, for which the GI50 in [1] was 1.54 µM; in experiment [2] it was 5.2 µM; in [3], 4.41 µM; in [4] it was 2.92 µM; in experiment [5] it was 1.59 µM; in experiment [6], 2.48 µM. The GI50 in [7] was 2.73 µM; in [8] it was 4.15 µM; in [9] it was 1.68 µM; in experiment [10] it was 3.37 µM. Also, the TGI in [1] was 7.97 µM; in [2], 19.9 µM; in [3], 32.3 µM; in [4] it was 13.5 µM; in experiment [5] it was 3 µM; in experiment [6], 18.4 µM. In addition, the TGI in [7] was 10.3 µM; in [8], 34.6 µM; in experiment [9], 3.43 µM; in experiment [10], 14.9 µM.

For the molecule `O=C1Nc2ccc(Cl)cc2/C1=C\c1c(-c2ccc(Cl)cc2)nc2sc(C3CC3)nn12`, the GI50 in experiment [1] was 1.05 µM; in experiment [2], 1.7 µM; in experiment [3], 2.23 µM; in [4], 4.39 µM; in experiment [5], 3.15 µM; in experiment [6] it was 2.67 µM. In addition, the GI50 is 4.12 µM in experiment [7], 4.36 µM in experiment [9] and 4.68 µM in [10]. The TGI in [1] amounted to 6.42 µM; in experiment [2], 4.68 µM; in experiment [3] it was 6.89 µM; in [4], 17.6 µM; in experiment [5], 10.7 µM; in experiment [6] it was 13 µM. Besides, the results for the TGI in experiment [7], in experiment [9] and in experiment [10] were 15.8 µM, 17.6 µM and 18.8 µM, respectively.

In the case of `C=C1C[C@H]2C=Nc3cc(OCCCOc4cc5c(cc4OC)C(=O)N4CC(=C)C[C@H]4C=N5)c(OC)cc3C(=O)N2C1`, the TGI in experiment [1] was 0.0578 µM; in experiment [2], 0.0482 µM; in experiment [3], 0.64 µM; in experiment [4] it was 0.0158 µM; in experiment [6], 0.0452 µM; in experiment [7] it was 0.0341 µM. Further, the GI50 was 0.00706 µM in experiment [3]; 0.0185 µM in experiment [6]; 0.0665 µM and 0.0182 µM in [8]; 0.0231 µM in [9]; 0.00125 µM in experiment [10].

For the molecule `O=C1Nc2ccc(Br)cc2C12CC(c1ccccc1)=NN2` (centres undefined), the GI50 was 2.24 µM in experiment [1]; 6.93 µM in experiment [2]; 2.77 µM in experiment [3]; 5.43 µM in [4]; 7.21 µM in experiment [5]; 6.19 µM in experiment [6]. Moreover, the GI50 in [7] is 3.51 µM; in experiment [9] it was 3.56 µM; in experiment [10], 5.66 µM. The TGI in experiment [1] was 8.38 µM; in experiment [2], over 100 µM; in experiment [3], 9.5 µM; in experiment [4], 77.2 µM; in [5], 22.9 µM; in experiment [6], 29.5 µM. The TGI in experiment [7] amounted to 29.3 µM; in [9] it was 48.8 µM; in experiment [10], 48.5 µM.

Regarding `N#CCn1c(=O)c(Oc2ccc(F)cc2F)cc2cnc(NC3CCOCC3)nc21`, the GI50 in [1] is 24.7 µM; in experiment [2], over 25 µM; in experiment [3], over 25 µM; in experiment [4], over 25 µM; in [5] it was over 25 µM; in [6] it was over 25 µM. Besides, the GI50 in experiment [7], in experiment [9] and in experiment [10] was over 25 µM in each case. Also, the TGI in experiment [1], in experiment [2], in experiment [3], in experiment [4], in experiment [5] and in experiment [6] was over 25 µM each time. For the same molecule, the TGI in experiment [7], in [9] and in experiment [10] was over 25 µM throughout.

In the case of `Cc1ccc(CNc2ccc(Br)cc2)cc1`, the TGI in experiment [1], in experiment [2], in experiment [3], in [4], in experiment [5] and in experiment [6] was over 100 µM each time. Moreover, the TGI in experiment [8] was over 100 µM; in experiment [9], 66.1 µM; in experiment [10], over 100 µM.

Take `O=C1NC(=NCCc2ccc(F)cc2)S/C1=C\c1ccc2ncccc2c1`: the GI50 in [1], in experiment [2], in experiment [3], in experiment [4], in [5] and in [6] was over 25 µM in each case. For the same molecule, the GI50 in [7], in experiment [9] and in experiment [10] was over 25 µM throughout. The TGI in experiment [1], in experiment [2], in experiment [3], in experiment [4], in experiment [5] and in experiment [6] was over 25 µM in each case. Besides, the TGI in experiment [7], in experiment [9] and in [10] was over 25 µM in each case.

These data come from PubChem BioAssay (NCI).
